ChEMBL document CHEMBL4715877, “Asperginols A and B, Diterpene Pyrones, from an Aspergillus sp. and the Structure Revision of Previously Reported Analogues” (J Nat Prod, 2020)

Columns and labels:
Format in all cases: functional, cell-based
[1] = tested on: HepG2; assay: Cytotoxicity against human HepG2 cells assessed as reduction in cell viability after 72 hrs by MTT assay
[2] = tested on: HCT-116; assay: Cytotoxicity against human HCT-116 cells assessed as reduction in cell viability after 72 hrs by MTT assay
[3] = tested on: HT-29; assay: Cytotoxicity against human HT-29 cells assessed as reduction in cell viability after 72 hrs by MTT assay

## C=C1[C@H](O)C[C@@H]2[C@](C)(CC[C@H]3OC(C)(C)[C@@H](OC(=O)/C=C/C=C/C=C/[C@@H](C)CC)CC[C@]23C)[C@@H]1Cc1c(O)c(C)c(C)oc1=O
[1]
  IC50: Not Active
[2]
  IC50: Not Active
[3]; Homo sapiens, HT-29, 72 h, read-out: IC50
  IC50: 7.6 µM

## C=C1[C@H](O)C[C@@H]2[C@](C)(CC[C@H]3OC(C)(C)[C@@H](OC(=O)/C=C/C=C/[C@@H](C)CC)CC[C@]23C)[C@@H]1Cc1c(O)c(C)c(C)oc1=O
[1]
  IC50: Not Active
[2]
  IC50: Not Active
[3]; ht-29
  IC50: Not Active

## C=C1CC[C@@H]2[C@](C)(CC[C@H]3OC(C)(C)[C@@H](OC(=O)/C=C/C=C/[C@@H](C)CC)CC[C@]23C)[C@@H]1Cc1c(O)c(C)c(C)oc1=O
[1]
  IC50: Not Active
[2]
  IC50: Not Active
[3]; ht-29
  IC50: Not Active

## C=C1[C@H](O)C[C@@H]2[C@](C)(CC[C@H]3OC(C)(C)[C@@H](O)CC[C@]23C)[C@@H]1Cc1c(O)c(C)c(C)oc1=O
[1]
  IC50: Not Active
[2]
  IC50: Not Active
[3]; ht-29
  IC50: Not Active

## C=C1[C@H](O)C[C@@H]2[C@](C)(CC[C@H]3OC(C)(C)[C@@H](OC(C)=O)CC[C@]23C)[C@@H]1Cc1c(O)c(C)c(C)oc1=O
[1]
  IC50: Not Active
[2]
  IC50: Not Active
[3]; ht-29
  IC50: Not Active

## C=C1CC[C@@H]2[C@](C)(CC[C@H]3OC(C)(C)[C@@H](O)CC[C@]23C)[C@@H]1Cc1c(O)c(C)c(C)oc1=O
[1]
  IC50: Not Active
[2]
  IC50: Not Active
[3]; ht-29
  IC50: Not Active
